Measurements: patent EP4722201A1, “3-PHENYLISOXAZOLINE-5-CARBOXAMIDE COMPOUND, AND PREPARATION METHOD THEREFOR, HERBICIDAL COMPOSITION THEREOF AND USE THEREOF” (Jiangsu Flag Chemical Industry Co., Ltd, priority 2023, dated 2024)

Key:
Test in all cases: Indoor herbicide activity determination, Seed Treatment; pre-emergence (soil spray)
Assay type in all cases: in vivo
Eclipta prostrata = details: read-out: Herbicidal activities (inhibition rate) Eclipta prostrata; for inhibition at 120 g/ha: 120 g a.i./ha; for inhibition at 60 g/ha: 60 g a.i./ha
Summary of the method: (§1)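 Sow seeds into soil-filled 7 cm pots (sandy, pH 6.1, 1% organic matter) and cover them. Water from beneath, then incubate 24 h in a lit, temperature-controlled chamber. Spray the soil in a traveling tower, let it dry in shade, grow on 21 days, and weigh fresh biomass against controls.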

Alopecurus japonicus = tested on: Alopecurus japonicus
Summary of the method: as §1

Lolium multiflorum = tested on: Lolium multiflorum
Summary of the method: as §1

Eleusine indica = tested on: Eleusine indica
Summary of the method: as §1

Leptochloa chinensis = tested on: Leptochloa chinensis
Summary of the method: as §1

Cyperus iria = details: read-out: Herbicidal activities (inhibition rate) Cyperus iria; for inhibition at 120 g/ha: 120 g a.i./ha; for inhibition at 60 g/ha: 60 g a.i./ha
Summary of the method: as §1

Aegilops tauschii = details: read-out: Herbicidal activities (inhibition rate) Aegilops tauschii; for inhibition at 120 g/ha: 120 g a.i./ha; for inhibition at 60 g/ha: 60 g a.i./ha
Summary of the method: as §1

Digitaria sanguinalis = details: read-out: Herbicidal activities (inhibition rate) Digitaria sanguinalis; for inhibition at 120 g/ha: 120 g a.i./ha; for inhibition at 60 g/ha: 60 g a.i./ha
Summary of the method: as §1

Alopecurus myosuroides = tested on: Alopecurus myosuroides
Summary of the method: as §1

| SMILES | inhibition at 120 g/ha (Eclipta prostrata) [%] | Herbicidal activities, Alopecurus japonicus (inhibition rate class) (Alopecurus japonicus; Dosage 240 g a.i./ha) | Herbicidal activities, Lolium multiflorum (inhibition rate class) (Lolium multiflorum; Dosage 240 g a.i./ha) | Herbicidal activities, Eleusine indica (inhibition rate class) (Eleusine indica; Dosage 240 g a.i./ha) | Herbicidal activities, Leptochloa chinensis (inhibition rate class) (Leptochloa chinensis; Dosage 240 g a.i./ha) | inhibition at 120 g/ha (Cyperus iria) [%] | inhibition at 120 g/ha (Aegilops tauschii) [%] | inhibition at 120 g/ha (Digitaria sanguinalis) [%] | Herbicidal activities, Alopecurus myosuroides (inhibition rate class) (Alopecurus myosuroides; Dosage 240 g a.i./ha) | also measured |
| --- | --- | --- | --- | --- | --- | --- | --- | --- | --- | --- |
| C=CC1(C(=O)N[C@H]2CO[C@@H](C(=O)OC)C2)CC(c2cc(F)cc(C(F)(F)F)c2)=NO1 (mixture of isomers) [I-368] | 40 to 60 | A (A indicates that the inhibition rate was greater than or equal to 80% to 100%) | A (A indicates that the inhibition rate was greater than or equal to 80% to 100%) | A (A indicates that the inhibition rate was greater than or equal to 80% to 100%) | A (A indicates that the inhibition rate was greater than or equal to 80% to 100%) | 60 to 80 | 80 to 100 | 60 to 80 | A (A indicates that the inhibition rate was greater than or equal to 80% to 100%) |  |
| C=CC1(C(=O)N[C@H]2CO[C@@H](C(=O)OC)C2)CC(c2cc(F)cc(OC(F)(F)F)c2)=NO1 (mixture of isomers) [I-369] | 40 to 60 | A (A indicates that the inhibition rate was greater than or equal to 80% to 100%) | A (A indicates that the inhibition rate was greater than or equal to 80% to 100%) | A (A indicates that the inhibition rate was greater than or equal to 80% to 100%) | A (A indicates that the inhibition rate was greater than or equal to 80% to 100%) | 60 to 80 | 80 to 100 | 60 to 80 | A (A indicates that the inhibition rate was greater than or equal to 80% to 100%) |  |
| C=CC1(C(=O)N[C@H]2CO[C@@H](C(=O)OC)C2)CC(c2cc(F)cc(OC(F)F)c2)=NO1 (mixture of isomers) [I-370] | 60 to 80 | A (A indicates that the inhibition rate was greater than or equal to 80% to 100%) | A (A indicates that the inhibition rate was greater than or equal to 80% to 100%) | A (A indicates that the inhibition rate was greater than or equal to 80% to 100%) | A (A indicates that the inhibition rate was greater than or equal to 80% to 100%) | 80 to 100 | 80 to 100 | 60 to 80 | A (A indicates that the inhibition rate was greater than or equal to 80% to 100%) |  |
| C=CC1(C(=O)N[C@H]2CO[C@@H](C(=O)OC)C2)CC(c2cc(Cl)cc(C(F)(F)F)c2)=NO1 (mixture of isomers) [I-371] | 40 to 60 | A (A indicates that the inhibition rate was greater than or equal to 80% to 100%) | A (A indicates that the inhibition rate was greater than or equal to 80% to 100%) | A (A indicates that the inhibition rate was greater than or equal to 80% to 100%) | A (A indicates that the inhibition rate was greater than or equal to 80% to 100%) | 60 to 80 | 80 to 100 | 60 to 80 | A (A indicates that the inhibition rate was greater than or equal to 80% to 100%) |  |
| C=CC1(C(=O)N[C@H]2CO[C@@H](C(=O)OC)C2)CC(c2cc(Cl)cc(OC(F)(F)F)c2)=NO1 (mixture of isomers) [I-372] | 80 to 100 | A (A indicates that the inhibition rate was greater than or equal to 80% to 100%) | A (A indicates that the inhibition rate was greater than or equal to 80% to 100%) | A (A indicates that the inhibition rate was greater than or equal to 80% to 100%) | A (A indicates that the inhibition rate was greater than or equal to 80% to 100%) | 80 to 100 | 80 to 100 | 80 to 100 | A (A indicates that the inhibition rate was greater than or equal to 80% to 100%) |  |
| C=CC1(C(=O)N[C@H]2CO[C@@H](C(=O)OC)C2)CC(c2cc(Cl)cc(OC(F)F)c2)=NO1 (mixture of isomers) [I-373] | 80 to 100 | A (A indicates that the inhibition rate was greater than or equal to 80% to 100%) | A (A indicates that the inhibition rate was greater than or equal to 80% to 100%) | B (B indicates that the inhibition rate was greater than or equal to 60% to less than 80%) | A (A indicates that the inhibition rate was greater than or equal to 80% to 100%) | 60 to 80 | 60 to 80 | 80 to 100 | A (A indicates that the inhibition rate was greater than or equal to 80% to 100%) |  |
| C=C[C@]1(C(=O)N[C@H]2C=C[C@@H](C(=O)OCC)C2)CC(c2cc(F)cc(C(F)(F)F)c2)=NO1 [I-429] |  |  |  |  |  |  |  |  |  | inhibition at 60 g/ha (Eclipta prostrata): 60 to 80%; Herbicidal activities, Alopecurus japonicus (inhibition rate class) (Alopecurus japonicus; Dosage 120 g a.i./ha): A (A indicates that the inhibition rate was greater than or equal to 80% to 100%); Herbicidal activities, Lolium multiflorum (inhibition rate class) (Lolium multiflorum; Dosage 120 g a.i./ha): A (A indicates that the inhibition rate was greater than or equal to 80% to 100%); Herbicidal activities, Eleusine indica (inhibition rate class) (Eleusine indica; Dosage 120 g a.i./ha): A (A indicates that the inhibition rate was greater than or equal to 80% to 100%); Herbicidal activities, Leptochloa chinensis (inhibition rate class) (Leptochloa chinensis; Dosage 120 g a.i./ha): A (A indicates that the inhibition rate was greater than or equal to 80% to 100%); inhibition at 60 g/ha (Cyperus iria): 60 to 80%; inhibition at 60 g/ha (Aegilops tauschii): 60 to 80%; inhibition at 60 g/ha (Digitaria sanguinalis): 60 to 80%; Herbicidal activities, Alopecurus myosuroides (inhibition rate class) (Alopecurus myosuroides; Dosage 120 g a.i./ha): A (A indicates that the inhibition rate was greater than or equal to 80% to 100%) |
| C=C[C@]1(C(=O)N[C@H]2C=C[C@@H](C(=O)OC(C)C)C2)CC(c2cc(F)cc(OC(F)(F)F)c2)=NO1 [I-463] |  |  |  |  |  |  |  |  |  | inhibition at 60 g/ha (Eclipta prostrata): 60 to 80%; Herbicidal activity (inhibition rate class), Alopecurus japonicus (Alopecurus japonicus; Dosage 120 g a.i./ha): A (A indicates that the inhibition rate was greater than or equal to 80% to 100%); Herbicidal activity (inhibition rate class), Lolium multiflorum (Lolium multiflorum; Dosage 120 g a.i./ha): A (A indicates that the inhibition rate was greater than or equal to 80% to 100%); Herbicidal activity (inhibition rate class), Eleusine indica (Eleusine indica; Dosage 120 g a.i./ha): A (A indicates that the inhibition rate was greater than or equal to 80% to 100%); Herbicidal activity (inhibition rate class), Leptochloa chinensis (Leptochloa chinensis; Dosage 120 g a.i./ha): A (A indicates that the inhibition rate was greater than or equal to 80% to 100%); inhibition at 60 g/ha (Cyperus iria): 60 to 80%; inhibition at 60 g/ha (Aegilops tauschii): 60 to 80%; inhibition at 60 g/ha (Digitaria sanguinalis): 60 to 80%; Herbicidal activity (inhibition rate class), Alopecurus myosuroides (Alopecurus myosuroides; Dosage 120 g a.i./ha): A (A indicates that the inhibition rate was greater than or equal to 80% to 100%) |
| CC1(C(=O)N[C@H]2C=C[C@@H](C(=O)O)C2)CC(c2cc(Cl)cc(OC(F)(F)F)c2)=NO1 (stereo partly drawn) [I-485] | 80 to 100 |  |  |  |  | 80 to 100 | 80 to 100 | 60 to 80 |  | Herbicidal activity (inhibition rate class), Alopecurus japonicus (Alopecurus japonicus; Dosage 240 g a.i./ha): A (A indicates that the inhibition rate was greater than or equal to 80% to 100%); Herbicidal activity (inhibition rate class), Lolium multiflorum (Lolium multiflorum; Dosage 240 g a.i./ha): A (A indicates that the inhibition rate was greater than or equal to 80% to 100%); Herbicidal activity (inhibition rate class), Eleusine indica (Eleusine indica; Dosage 240 g a.i./ha): A (A indicates that the inhibition rate was greater than or equal to 80% to 100%); Herbicidal activity (inhibition rate class), Leptochloa chinensis (Leptochloa chinensis; Dosage 240 g a.i./ha): A (A indicates that the inhibition rate was greater than or equal to 80% to 100%); Herbicidal activity (inhibition rate class), Alopecurus myosuroides (Alopecurus myosuroides; Dosage 240 g a.i./ha): A (A indicates that the inhibition rate was greater than or equal to 80% to 100%) |
| COC(=O)[C@@H]1C=C[C@H](NC(=O)C2(C)CC(c3cc(Cl)cc(OC(F)(F)F)c3)=NO2)C1 (stereo partly drawn) [I-486] | 80 to 100 |  |  |  |  | 80 to 100 | 80 to 100 | 60 to 80 |  | Herbicidal activity (inhibition rate class), Alopecurus japonicus (Alopecurus japonicus; Dosage 240 g a.i./ha): A (A indicates that the inhibition rate was greater than or equal to 80% to 100%); Herbicidal activity (inhibition rate class), Lolium multiflorum (Lolium multiflorum; Dosage 240 g a.i./ha): A (A indicates that the inhibition rate was greater than or equal to 80% to 100%); Herbicidal activity (inhibition rate class), Eleusine indica (Eleusine indica; Dosage 240 g a.i./ha): A (A indicates that the inhibition rate was greater than or equal to 80% to 100%); Herbicidal activity (inhibition rate class), Leptochloa chinensis (Leptochloa chinensis; Dosage 240 g a.i./ha): A (A indicates that the inhibition rate was greater than or equal to 80% to 100%); Herbicidal activity (inhibition rate class), Alopecurus myosuroides (Alopecurus myosuroides; Dosage 240 g a.i./ha): A (A indicates that the inhibition rate was greater than or equal to 80% to 100%) |
| CSCCOC(=O)[C@@H]1C=C[C@H](NC(=O)C2(C)CC(c3cc(Cl)cc(OC(F)(F)F)c3)=NO2)C1 (stereo partly drawn) [I-487] | 80 to 100 |  |  |  |  | 80 to 100 | 80 to 100 | 60 to 80 |  | Herbicidal activity (inhibition rate class), Alopecurus japonicus (Alopecurus japonicus; Dosage 240 g a.i./ha): A (A indicates that the inhibition rate was greater than or equal to 80% to 100%); Herbicidal activity (inhibition rate class), Lolium multiflorum (Lolium multiflorum; Dosage 240 g a.i./ha): A (A indicates that the inhibition rate was greater than or equal to 80% to 100%); Herbicidal activity (inhibition rate class), Eleusine indica (Eleusine indica; Dosage 240 g a.i./ha): A (A indicates that the inhibition rate was greater than or equal to 80% to 100%); Herbicidal activity (inhibition rate class), Leptochloa chinensis (Leptochloa chinensis; Dosage 240 g a.i./ha): A (A indicates that the inhibition rate was greater than or equal to 80% to 100%); Herbicidal activity (inhibition rate class), Alopecurus myosuroides (Alopecurus myosuroides; Dosage 240 g a.i./ha): A (A indicates that the inhibition rate was greater than or equal to 80% to 100%) |
